# In patent US11147816B2, “Composition for inducing differentiation and protection of neural stem cells and method for inducing neuro-regeneration using the same composition” (GENUV Inc., priority 2016, dated 2021):
# pIC50: −log10 of the molar value. Entries after “also recorded” stand apart in the source; their conditions may differ. Where two headings read alike, the source gives them in different places.
# Columns and labels:
# [1] = tested on: mouse embryonic neural stem cells; assay: Morphology analysis of NSC differentiation in mouse embryonic neural stem cells (Examples 1, 6); type: cell-based; details: for concentration at which differentiation morphology starts: tested at 0.1, 1.0, 10 μM
# Protocol: Neural stem cells were isolated from the brain of a day 14.5 mouse embryo, treated with 10 ng/ml human basic fibroblast growth factor (bFGF) (Peprotech, Princeton, NG, cat#.100-18B) and 20 ng/ml human epidermal growth factor (EGF) (Peprotech, cat#. AF-100-15) in a N2 culture medium, and cultured in suspension in a 25 cm2 flask (Nunc, Pittsburgh, Pa.) for 4 days. Formation of neurospheres was observed after 2 days.
# In order to isolate single cells, 6-well plates were prepared the day before by treating the wells with 15 μg/ml poly-L-ornithine (Sigma, St. Louis, Mo., cat#.P2533) solution and incubating overnight at 37° C. for coating. The day of the single cell isolation, poly-L-ornithine solution was removed, the plates were washed with PBS three times, and 10 μg/ml fibronectin (Gibco, Waltham, Mass., cat#. 33016015) solution was added and incubated at 37° C. for 2 hours for coating.
# Various concentrations of the compound of [Formula 1] […]
# [2] = tested on: mouse adult neural stem cells; details: for cell protection and NSC differentiation under amyloid-beta cytotoxicity: 10 μM amyloid-beta, each at its optimal concentration (AS703026 10, AZD8330 1, PD318088 1, binimetinib 10, refametinib 1, PD0325901 10, RO5126766 10 μM); for cell toxicity / cell death (morphology): AS703026 10 μM; for concentration at which the differentiation-inducing effect starts: no amyloid-beta
# Protocol: NSC were isolated from the subventricular zone of week 8 mouse brain, treated with 20 ng/ml human basic fibroblast growth factor (bFGF) and 20 ng/ml human epidermal growth factor (EGF) in an IPM medium, and cultured as a suspension in 24-well plates for 7 days.
# Two days before the isolation of single cells, 6-well plates were prepared by treating the wells with 10 μg/ml poly-L-ornithine solution and incubating overnight at room temperature for coating. The next day, poly-L-ornithine solution was removed and the plates were washed 3 times with sterilized triple distilled water. […] The culture solution used is N2 culture medium (supplemented with 20 ng/ml bFGF and 20 ng/ml EGF). Right before seeding, the coating solution was suctioned out, and the single cells were uniformly seeded into the culture plate before the plate dried up. Cells were allowed to attach to the plates for about one minute, and after checking that cells were sufficiently attached, an additional 1.5 ml of culture medium (N2 culture medium with 20 ng/ml bFGF and 20 ng/ml EGF) was added to the cells and cultured in a 37° C. incubator for 24 hours.
# Wells not treated with amyloid-beta were left to use as negative controls.
# Gibco's (Waltham, Mass.) human Aβ (1-42) was purchased to use for the amyloid-beta (Aβ), and the following process was followed to create oligomers. First, amyloid-beta was dissolved in 100% HFIP (1,1,1,3,3,3-hexafluoro-2-propanol) (Sigma, cat#.105228) to obtain a concentration of 1 mg/ml and vortexed at room temperature for 1 hour. Then, it was dried for 10 minutes in a speed Vac, after which DMSO (Sigma, cat#.D2650) was added to bring the concentration to 5 mM and then lightly vortexed at room temperature for 10 minutes. […] The solution was incubated at 4° C. for 24 hours and then added into the cultured cells.
# The NCSs were cultured with the daily addition of EGF, bFGF, amyloid-beta, and test materials for 4 days.
# [3] = tested on: mouse embryonic neural stem cells; assay: Immunocytochemistry analysis, Tuj1 and DAPI staining (Example 3); type: cell-based; details: 4 days
# Protocol: Tuj1 (Neuron specific class III beta-tubulin) is a neuron specific marker protein, which was conjugated to rhodamine to show fluorescent red, while DAPI binds to the cell DNA and stains the cell nuclei fluorescent blue. […] The medium was removed and the cells were washed with PBS. After fixing with 10% formaldehyde (Sigma cat#. HT501128) at room temperature for 10 minutes, they were washed again with PBS. They were permeabilized with 0.2% Triton X-100 (Sigma, cat#. 93443) at room temperature for 15 minutes, washed with PBS, and incubated with 10% BSA (Sigma, cat#. A2153)+1% normal goat serum (Vector lab, Burlingame, Calif., cat#. S1000) at room temperature for 1 hour. […] The solution was removed, washed with PBS, and incubated at room temperature for 1 hour with the secondary antibody (rhodamine-conjugated antibody) diluted in 1% BSA+1% normal goat serum at a ratio of 1:200. Then, the cells were washed with PBS, incubated with 5 μg/ml DAPI (Sigma, cat#. D9542) for 5 minutes, washed with PBS again, and mounted on a slide glass for analysis with a fluorescent microscope.
# [4] = tested on: mouse embryonic neural stem cells; assay: qRT-PCR of relative mRNA expression of neuronal markers in mouse embryonic NSC (Examples 4-1, 4-2, 6); type: cell-based; details: 10 μM (10000 nM)
# Protocol: Isopropanol (Ducsan, GyunggiDo, Korea, cat#. 67-63-0) was added and mixed for RNA isolation, then centrifuged again to remove the supernatant and obtain the pellet. The RNA pellet was resuspended in 75% ethanol (Ducsan, cat#. 64-17-15), centrifuged, and the supernatant removed. The pellet was then resuspended in sterilized triple distilled water to obtain the mRNA, incubated for 10 minutes at 55° C., and stored at −80° C.
# Sterilized triple distilled water, […] oligo dT, and 1 mM dNTP were added to the RNA and incubated for 5 minutes at 65° C. This was followed by the addition of 5X First-strand buffer, 10 mM DTT, and M-MLV reverse transcriptase and incubated at 42° C. for 1 hour, then at 72° C. for 15 minutes, and at 4° C. for 30 minutes. The synthesized cDNA was stored at −20° C.
# The term relative mRNA expression level signifies that in order to normalize each group's total RNA level, the mRNA expression level of each differentiation marker is divided by the expression level of GAPDH whose expression level is fairly constant across cells, and then the values of each test material are compared with those of the controls (undifferentiated NSC) in each group.
# MEK2 = MEK2 (Homo sapiens (Human), UniProt P36507); details: cited from earlier work
# MEK2, sequence (P36507 whole entry, species assumed): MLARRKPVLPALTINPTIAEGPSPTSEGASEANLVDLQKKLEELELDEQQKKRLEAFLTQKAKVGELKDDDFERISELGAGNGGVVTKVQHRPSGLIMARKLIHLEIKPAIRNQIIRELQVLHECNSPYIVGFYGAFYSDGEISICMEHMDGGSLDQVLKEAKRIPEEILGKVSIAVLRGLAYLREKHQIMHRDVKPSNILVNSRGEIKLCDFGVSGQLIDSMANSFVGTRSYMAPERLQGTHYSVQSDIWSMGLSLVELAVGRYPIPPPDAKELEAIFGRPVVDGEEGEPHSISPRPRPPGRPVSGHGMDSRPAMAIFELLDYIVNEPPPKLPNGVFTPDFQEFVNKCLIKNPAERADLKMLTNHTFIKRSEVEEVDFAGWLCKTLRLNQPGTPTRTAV
# MEK1 = MEK1 (Homo sapiens (Human), UniProt Q02750); details: cited from earlier work
# MEK1, sequence (Q02750 whole entry, species assumed): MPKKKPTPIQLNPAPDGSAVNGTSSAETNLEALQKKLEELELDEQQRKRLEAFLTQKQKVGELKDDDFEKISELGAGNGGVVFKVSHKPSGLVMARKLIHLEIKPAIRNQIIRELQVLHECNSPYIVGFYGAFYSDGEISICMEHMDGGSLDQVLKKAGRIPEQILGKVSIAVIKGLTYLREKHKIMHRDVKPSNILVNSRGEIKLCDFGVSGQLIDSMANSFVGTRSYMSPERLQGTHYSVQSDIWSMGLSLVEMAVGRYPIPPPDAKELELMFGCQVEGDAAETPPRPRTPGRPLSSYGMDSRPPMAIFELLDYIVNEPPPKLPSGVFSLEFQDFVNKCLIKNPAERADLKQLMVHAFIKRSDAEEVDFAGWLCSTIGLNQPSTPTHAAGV
# MEK 1, MEK2 = details: literature reference; cited from earlier work
# [5] = 1.0 μM and 10 μM, day 2 of culture
# [6] = trametinib 10 nM, 100 nM, memantine 5 μM, 10 μM, 4 days
# [7] = 1.0 nM and 10 nM, day 2 of culture
compound,measurement,setting,value
Cc1cc(C(=O)NOCCO)c(Nc2ccc(I)cc2F)n(C)c1=O [AZD8330],concentration at which differentiation morphology starts,[1]; day 2 of culture,1.0 μM
same,cell protection and NSC differentiation under amyloid-beta cytotoxicity,[2]; day 2,provided cell protection and induced the differentiation of NSC
O=C(NOCC1CC1)c1ccc(F)c(F)c1Nc1ccc(I)cc1Cl [PD184352],NSC differentiation-inducing effect (morphology),"[1]; 0.1 μM, day 2 of culture",only a weak NSC differentiation-inducing effect
same,cell death (morphology),[1]; [5],all the cells died
O=C(NC[C@H](O)CO)c1ccncc1Nc1ccc(I)cc1F [AS703026],concentration required for neuronal differentiation to initiate,"[1]; added daily, 4 days of culture",1.0 µM
same,concentration at which differentiation morphology starts,[1]; day 2 of culture,10 μM
same,cell protection and NSC differentiation under amyloid-beta cytotoxicity,[2]; day 2,provided cell protection and induced the differentiation of NSC
same,concentration required for neuronal differentiation,"[2]; regardless of 10 μM amyloid-beta treatment, 4 days",10 µM
same,cell toxicity / cell death (morphology),[2]; [6],did not elicit cell toxicity
same,neuron differentiation by Tuj1 staining,[3]; 0.1 μM,no differentiation was observed
same,neuron differentiation by Tuj1 staining,[3]; 1.0 μM,"neuron differentiation occurs at this concentration, albeit only to a marginal extent"
same,Tuj1 and TH mRNA expression compared with trametinib,[4],comparable to those of 25 nM trametinib
BI847325,cell proliferation (morphology),[2]; [7],cell proliferation seemed to be somewhat inhibited
same,differentiation-inducing effect (morphology),[2]; [7],a differentiation-inducing effect was not observed
same,differentiation-inducing effect (morphology),"[2]; 0.1 μM, day 2 of culture",only a weak differentiation-inducing effect
same,cell death (morphology),[2]; [5],all the cells died
O=C(NOC[C@H](O)CO)c1ccc(F)c(F)c1Nc1ccc(I)cc1F [PD0325901],concentration at which the differentiation-inducing effect starts,[2]; day 2 of culture,0.1 µM
O=C(c1ccc(F)c(F)c1Nc1ccc(I)cc1F)N1CC(O)([C@@H]2CCCCN2)C1 [cobimetinib],differentiation of adult NSC (morphology),"[2]; 10 μM, regardless of amyloid-beta, day 2",did not induce the differentiation of adult NSC; also recorded: does not induce the differentiation of mouse adult neural stem cells
same,pIC50,MEK2,6.70
same,selectivity toward MEK1 compared with MEK2,MEK1; Molecules 2017;22:1551,≥ 100 ×
same,pIC50,MEK1,9.02
COc1cc(F)c(F)c(Nc2ccc(I)cc2F)c1NS(=O)(=O)C1(C[C@H](O)CO)CC1 [refametinib],concentration at which differentiation morphology starts,[1]; day 2 of culture,1.0 μM
same,cell protection and NSC differentiation under amyloid-beta cytotoxicity,[2]; day 2,provided cell protection and induced the differentiation of NSC
CC12CC3CC(C)(C1)CC(N)(C3)C2 [memantine],cell toxicity / cell death (morphology),[2]; [6],death of neural stem cells
same,differentiation of NSC into neurons (morphology),"[2]; with or without 10 μM oligomeric Aβ(1-42), trametinib 10 nM, 100 nM, memantine 5 μM, 10 μM, 4 days",the differentiation of NSC into neurons was not observed
N#CC(=C(/N)Sc1ccccc1N)/C(C#N)=C(\N)Sc1ccccc1N [U0126],cell proliferation (morphology),"[2]; 0.1 μM and 1.0 μM, day 2 of culture",inhibition of cell proliferation
same,differentiation-inducing effect (morphology),"[2]; 2.5 μM, day 2 of culture",did not show any clear differentiation-inducing effect
same,cytotoxicity (morphology),"[2]; 10 μM, day 2 of culture",showed cell cytotoxicity
same,NSC differentiation-inducing effect (morphology),[2]; all concentrations tested,failed to show any NSC differentiation-inducing effect
CNS(=O)(=O)Nc1nccc(Cc2c(C)c3ccc(Oc4ncccn4)cc3oc2=O)c1F [RO5126766],cell protection and NSC differentiation under amyloid-beta cytotoxicity,[2]; day 2,provided cell protection and induced the differentiation of NSC
same,concentration at which the differentiation-inducing effect starts,[2]; day 2 of culture,1.0 µM
O=C(NOCC(O)CO)c1cc(Br)c(F)c(F)c1Nc1ccc(I)cc1F (stereo not drawn) [PD318088],concentration at which differentiation morphology starts,[1]; day 2 of culture,1.0 μM
same,cell protection and NSC differentiation under amyloid-beta cytotoxicity,[2]; day 2,provided cell protection and induced the differentiation of NSC
Cn1cnc2c(F)c(Nc3ccc(Br)cc3F)c(C(=O)NOCCO)cc21 [binimetinib],pIC50,"MEK 1, MEK2",7.92
same,concentration at which differentiation morphology starts,[1]; day 2 of culture,10 μM
same,cell protection and NSC differentiation under amyloid-beta cytotoxicity,[2]; day 2,provided cell protection and induced the differentiation of NSC
